Assay results from patent publication US20020137929A1, “1 - (3-heterocyclylphenyl) isothiourea, -isourea, -guanidine and -amidine herbicidal agents” (Intellectual Property Department, BASF Aktiengesellschaft, priority 1998, published 2002).

What was measured:
[1] = system: ORYSAT (Rice, Tebonnet); assay: Postemergence herbicidal evaluation; assay type: in vivo, Oryza sativa, (L.) Tebonnet; details: postemergence
Procedure, shortened: (§1)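 Scores (0–9) reflect plant stand, vigor, malformation, size, chlorosis and general appearance relative to control, read 4 to 5 weeks after treatment and averaged where tests were repeated. Application: about 0.0156–0.500 kg/ha sprayed at 40 psi onto two-week seedlings.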

[2] = system: AMBEL (Ragweed, Common); assay: Preemergence herbicidal evaluation; assay type: in vivo, Ambrosia artemisifolia; details: rated 4-5 weeks after treatment, rating scale 0-9
Procedure, shortened: (§2)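 In this greenhouse assay, monocot and dicot seeds are planted in soil and treated prior to emergence with an aqueous acetone spray (about 0.0156-0.500 kg/ha). Plants are assessed visually against control on a 0-9 scale after 4-5 weeks.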

[3] = system: SETVI (Foxtail, Green); assay: Preemergence herbicidal evaluation; assay type: in vivo, Setaria viridis; details: rated 4-5 weeks after treatment, rating scale 0-9
Procedure, shortened: as §2

[4] = system: SETVI (Foxtail, Green); assay: Postemergence herbicidal evaluation; assay type: in vivo, Setaria viridis; details: postemergence
Procedure, shortened: as §1

[5] = system: CHEAL (Lambsquarters, Common); assay: Postemergence herbicidal evaluation; assay type: in vivo, Chenopodium album; details: postemergence
Procedure, shortened: as §1

[6] = system: ZEAMX (Corn, Field); assay: Postemergence herbicidal evaluation; assay type: in vivo, Zea mays; details: postemergence
Procedure, shortened: as §1

[7] = system: ABUTH (Velvetleaf); assay: Postemergence herbicidal evaluation; assay type: in vivo, Abutilon theophrasti; details: postemergence
Procedure, shortened: as §1

[8] = system: CYPIR (Rice Flatsedge); assay: Preemergence weed control under flooded paddy conditions; assay type: in vivo, Cyperus iria; details: rated 3-4 weeks after treatment
Procedure, shortened: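 Silt loam, seeds in top 0.5 cm; flood held 1.5-3 cm; test cpd as acetone/water 50/50 into flood water, ~0.0313-0.500 kg/ha a.i.; greenhouse 3-4 wk; visual 0-9 score vs control.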

[9] = system: GLXMAW (Soybean, Williams); assay: Postemergence herbicidal evaluation; assay type: in vivo, Glycine max, (L.) Merr. cv Williams; details: postemergence
Procedure, shortened: as §1

[10] = system: TRZAWR (Wheat, Winter, cv Riband); assay: Postemergence herbicidal evaluation; assay type: in vivo, Triticum aestivum; details: postemergence
Procedure, shortened: as §1

[11] = system: GALAP (Galium); assay: Preemergence herbicidal evaluation; assay type: in vivo, Galium aparine; details: rated 4-5 weeks after treatment, rating scale 0-9
Procedure, shortened: as §2

| SMILES | herbicidal rating ORYSAT ([1]; rate 0.0156 kg/ha) | herbicidal rating ORYSAT ([1]; rate 0.0313 kg/ha) | herbicidal rating ORYSAT ([1]; rate 0.0625 kg/ha) | Preemergence herbicidal rating AMBEL ([2]; rate 0.0625 kg/ha) | Preemergence herbicidal rating AMBEL ([2]; rate 0.1250 kg/ha) | Preemergence herbicidal rating AMBEL ([2]; rate 0.2500 kg/ha) | Preemergence herbicidal rating SETVI ([3]; rate 0.0625 kg/ha) | Preemergence herbicidal rating SETVI ([3]; rate 0.1250 kg/ha) | Preemergence herbicidal rating SETVI ([3]; rate 0.2500 kg/ha) | herbicidal rating SETVI ([4]; rate 0.0156 kg/ha) | herbicidal rating SETVI ([4]; rate 0.0313 kg/ha) | herbicidal rating SETVI ([4]; rate 0.0625 kg/ha) | herbicidal rating CHEAL ([5]; rate 0.0156 kg/ha) | herbicidal rating CHEAL ([5]; rate 0.0313 kg/ha) | herbicidal rating CHEAL ([5]; rate 0.0625 kg/ha) | herbicidal rating ZEAMX ([6]; rate 0.0156 kg/ha) | herbicidal rating ZEAMX ([6]; rate 0.0313 kg/ha) | herbicidal rating ZEAMX ([6]; rate 0.0625 kg/ha) | herbicidal rating ABUTH ([7]; rate 0.0156 kg/ha) | herbicidal rating ABUTH ([7]; rate 0.0313 kg/ha) | also measured |
| --- | --- | --- | --- | --- | --- | --- | --- | --- | --- | --- | --- | --- | --- | --- | --- | --- | --- | --- | --- | --- | --- |
| CSCCN1C(=O)CSC1=Nc1cc(-n2c(=O)cc(C(F)(F)F)n(C)c2=O)c(F)cc1Cl [Compound 157] | 2.0 | 2.5 | 3.0 | 0.0 | 0.0 | 1.0 | 0.0 | 2.0 | 1.0 | 0.0 | 1.0 | 7.0 | 2.0 | 4.0 | 9.0 | 7.0 | 7.0 | 7.0 | 7.0 | 9.0 | Preemergence herbicidal rating AMBEL ([2]; rate 0.0313 kg/ha): 0.0; Preemergence herbicidal rating SETVI ([3]; rate 0.0313 kg/ha): 0.0; herbicidal rating ABUTH ([7]; rate 0.0625 kg/ha): 9.0; herbicidal effect rating, CYPIR ([8]; 0.2500 kg/ha): 0.0; herbicidal rating GLXMAW ([9]; rate 0.0156 kg/ha): 4.5; herbicidal rating GLXMAW ([9]; rate 0.0313 kg/ha): 5.0; herbicidal rating GLXMAW ([9]; rate 0.0625 kg/ha): 7.5; herbicidal rating TRZAWR ([10]; rate 0.0156 kg/ha): 2.5; herbicidal rating TRZAWR ([10]; rate 0.0313 kg/ha): 3.5; herbicidal rating TRZAWR ([10]; rate 0.0625 kg/ha): 4.0; Preemergence herbicidal rating GALAP ([11]; rate 0.0313 kg/ha): 0.0; Preemergence herbicidal rating GALAP ([11]; rate 0.0625 kg/ha): 0.0; Preemergence herbicidal rating GALAP ([11]; rate 0.1250 kg/ha): 0.0; Preemergence herbicidal rating GALAP ([11]; rate 0.2500 kg/ha): 4.0 |
| Cn1c(C(F)(F)F)cc(=O)n(-c2cc(N=C3SCC(=O)N3Cc3ccc(Br)cc3)c(Cl)cc2F)c1=O [Compound 148, 3-{5-{[3-(p-Bromobenzyl)-4-oxo-2-thiazolidinyl-idene]amino}-4-chloro-2-fluorophenyl}-1-methyl-6-(trifluoromethyl)-2,4(1H,3H)-pyrimidinedione] | 2.0 | 3.0 | 3.0 | 0.0 | 0.0 | 4.0 | 0.0 | 0.0 | 5.0 | 2.0 | 2.0 | 4.0 | 4.0 | 7.0 | 7.0 | 4.0 | 4.0 | 5.0 | 9.0 | 9.0 | Preemergence herbicidal rating AMBEL ([2]; rate 0.0313 kg/ha): 0.0; Preemergence herbicidal rating SETVI ([3]; rate 0.0313 kg/ha): 1.0; herbicidal rating ABUTH ([7]; rate 0.0625 kg/ha): 9.0; herbicidal effect rating, CYPIR ([8]; 0.0313 kg/ha): 4.0; herbicidal effect rating, CYPIR ([8]; 0.0625 kg/ha): 4.0; herbicidal effect rating, CYPIR ([8]; 0.1250 kg/ha): 6.0; herbicidal effect rating, CYPIR ([8]; 0.2500 kg/ha): 7.0; herbicidal rating GLXMAW ([9]; rate 0.0156 kg/ha): 4.5; herbicidal rating GLXMAW ([9]; rate 0.0313 kg/ha): 5.0; herbicidal rating GLXMAW ([9]; rate 0.0625 kg/ha): 6.5; herbicidal rating TRZAWR ([10]; rate 0.0156 kg/ha): 2.5; herbicidal rating TRZAWR ([10]; rate 0.0313 kg/ha): 3.0; herbicidal rating TRZAWR ([10]; rate 0.0625 kg/ha): 4.0; Preemergence herbicidal rating GALAP ([11]; rate 0.0313 kg/ha): 0.0; Preemergence herbicidal rating GALAP ([11]; rate 0.0625 kg/ha): 0.0; Preemergence herbicidal rating GALAP ([11]; rate 0.1250 kg/ha): 0.0; Preemergence herbicidal rating GALAP ([11]; rate 0.2500 kg/ha): 0.0 |
| Cn1c(C(F)(F)F)cc(=O)n(-c2cc(N=C3SCC(=O)N3C3CC3)c(Cl)cc2F)c1=O [Compound 152, 3-{4-Chloro-5-[(3-cyclopropyl-4-oxo-2-thiazolidinylidene)amino]-2-fluorophenyl}-1-methyl-6-(trifluoromethyl)-2,4(1H,3H)-pyrimidinedione] | 1.5 | 2.0 | 3.0 | 0.0 | 2.0 | 6.0 | 1.0 | 1.0 | 9.0 | 0.0 | 3.0 | 3.0 | 0.0 | 4.0 | 9.0 | 4.0 | 5.0 | 6.5 | 6.0 | 4.0 | Preemergence herbicidal rating AMBEL ([2]; rate 0.0313 kg/ha): 0.0; Preemergence herbicidal rating SETVI ([3]; rate 0.0313 kg/ha): 0.0; herbicidal rating ABUTH ([7]; rate 0.0625 kg/ha): 9.0; herbicidal effect rating, CYPIR ([8]; 0.0625 kg/ha): 0.0; herbicidal effect rating, CYPIR ([8]; 0.1250 kg/ha): 0.0; herbicidal effect rating, CYPIR ([8]; 0.2500 kg/ha): 0.0; herbicidal rating GLXMAW ([9]; rate 0.0156 kg/ha): 4.0; herbicidal rating GLXMAW ([9]; rate 0.0313 kg/ha): 4.5; herbicidal rating GLXMAW ([9]; rate 0.0625 kg/ha): 6.0; herbicidal rating TRZAWR ([10]; rate 0.0156 kg/ha): 3.0; herbicidal rating TRZAWR ([10]; rate 0.0313 kg/ha): 3.5; herbicidal rating TRZAWR ([10]; rate 0.0625 kg/ha): 4.0; Preemergence herbicidal rating GALAP ([11]; rate 0.0313 kg/ha): 0.0; Preemergence herbicidal rating GALAP ([11]; rate 0.0625 kg/ha): 0.0; Preemergence herbicidal rating GALAP ([11]; rate 0.1250 kg/ha): 1.0; Preemergence herbicidal rating GALAP ([11]; rate 0.2500 kg/ha): 6.0 |
| COc1cccc(CN2C(=O)CSC2=Nc2cc(-n3c(=O)cc(C(F)(F)F)n(C)c3=O)c(F)cc2Cl)c1 [Compound 137, 3-{4-Chloro-2-fluoro-5-{[3-(m-methoxybenzyl)-4-oxo-2-thiazolidinylidene]amino}phenyl}-1-methyl-6-(trifluoromethyl)-2,4(1H,3H)-pyrimidinedione] | 3.0 | 3.0 | 3.5 | 0.0 | 0.0 | 7.0 | 0.0 | 0.0 | 2.0 | 1.0 | 1.0 | 3.0 | 6.0 | 9.0 | 9.0 | 4.0 | 4.0 | 4.0 | 9.0 | 9.0 | herbicidal rating ABUTH ([7]; rate 0.0625 kg/ha): 9.0; herbicidal effect rating, CYPIR ([8]; 0.0313 kg/ha): 3.0; herbicidal effect rating, CYPIR ([8]; 0.0625 kg/ha): 2.0; herbicidal effect rating, CYPIR ([8]; 0.1250 kg/ha): 2.0; herbicidal effect rating, CYPIR ([8]; 0.2500 kg/ha): 4.0; herbicidal rating GLXMAW ([9]; rate 0.0156 kg/ha): 6.0; herbicidal rating GLXMAW ([9]; rate 0.0313 kg/ha): 5.5; herbicidal rating GLXMAW ([9]; rate 0.0625 kg/ha): 5.5; herbicidal rating TRZAWR ([10]; rate 0.0156 kg/ha): 3.5; herbicidal rating TRZAWR ([10]; rate 0.0313 kg/ha): 3.0; herbicidal rating TRZAWR ([10]; rate 0.0625 kg/ha): 4.5; Preemergence herbicidal rating GALAP ([11]; rate 0.0625 kg/ha): 0.0; Preemergence herbicidal rating GALAP ([11]; rate 0.1250 kg/ha): 0.0; Preemergence herbicidal rating GALAP ([11]; rate 0.2500 kg/ha): 0.0 |
